Assay [1] addresses T1, CB2 cannabinoid receptor (Mus musculus, UniProt P47936). The following applies: earlier work on adamantyl substituents at C3 of Δ8-THC; cited from earlier work.
In assay [2] the target is T1, CB2 cannabinoid receptor. Put plainly: Competitive [3H]CP55,940 binding assay, mouse spleen membranes. The conditions noted are these: rCB1 versus mCB2 Ki values.

Each structure is given as a SMILES string. “Also recorded” adds a separate entry of the source. Read-outs that look alike come from different tables or passages of the source.

T1 sequence (P47936 whole entry): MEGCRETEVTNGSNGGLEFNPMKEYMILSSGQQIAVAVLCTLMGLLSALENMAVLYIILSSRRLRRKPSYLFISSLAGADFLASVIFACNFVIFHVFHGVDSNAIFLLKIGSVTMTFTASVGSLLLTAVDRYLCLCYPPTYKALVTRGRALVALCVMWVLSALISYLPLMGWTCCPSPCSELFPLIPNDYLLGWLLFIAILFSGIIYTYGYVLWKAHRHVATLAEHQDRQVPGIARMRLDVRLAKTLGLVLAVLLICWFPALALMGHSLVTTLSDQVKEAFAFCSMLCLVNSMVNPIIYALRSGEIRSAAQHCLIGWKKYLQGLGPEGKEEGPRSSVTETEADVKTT

For the molecule `CC1=CC[C@@H]2[C@@H](C1)c1c(O)cc(C34CC5CC(CC(C5)C3)C4)cc1OC2(C)C` [Compound 11, 3-(adamant-1′-yl)-Δ^8-THC], at CB2 cannabinoid receptor [1], the “CB1/CB2 receptor subtype selectivity (in words)” value was “substantial CB1 selectivity”.

For `CC1=CC[C@@H]2[C@@H](C1)c1c(ccc(C[C@H]3C[C@@H]4CC[C@]3(C)C4(C)C)c1O)OC2(C)C` [Compound 8c, (6aR-trans)-3-(endo-1′,7′,7′-Trimethylbicyclo[2.2.1]hept-2′-ylmethyl)-6a,7,10,10a-tetrahydro-6,6,9-trimethyl-6H-dibenzo[b,d]pyran-1-ol], the “CB1/CB2 receptor subtype selectivity (in words)” value at CB2 cannabinoid receptor [2] was “nonselective; also recorded: complete loss of subtype selectivities”.

In the case of `CC1=CC[C@@H]2[C@@H](C1)c1c(ccc(C[C@@H]3C[C@@H]4CC[C@]3(C)C4(C)C)c1O)OC2(C)C` [Compound 8d, (6aR-trans)-3-(exo-1′,7′,7′-Trimethylbicyclo[2.2.1]hept-2′-ylmethyl)-6a,7,10,10a-tetrahydro-6,6,9-trimethyl-6H-dibenzo[b,d]pyran-1-ol], the “CB1/CB2 receptor subtype selectivity (in words)” value at CB2 cannabinoid receptor [2] is listed as “nonselective; also recorded: complete loss of subtype selectivities”.

With `CC1=CCC2C(C1)c1c(O)cc(C3C4CC5CC(C4)CC3C5)cc1OC2(C)C` (centres unmarked) [adamant-2′-yl analog], on CB2 cannabinoid receptor [1], the “CB1/CB2 receptor subtype selectivity (in words)” value is reported as “CB2 selective”.

On to `CC1=CC[C@@H]2[C@@H](C1)c1c(O)cc([C@H]3C[C@@H]4CC[C@]3(C)C4(C)C)cc1OC2(C)C` [Compound 8a, (6aR-trans)-3-(endo-1′,7′,7′-Trimethylbicyclo[2.2.1]hept-2′-yl)-6a,7,10,10atetrahydro-6,6,9-trimethyl-6H-dibenzo[b,d]pyran-1-ol], for which, at CB2 cannabinoid receptor [2], the “CB1/CB2 receptor subtype selectivity (in words)” value is listed as “no subtype selectivity”.

The values are drawn from PMC3700413 (Journal of medicinal chemistry, 2008).
